Here are results for 2 molecules from paper PMC7917255 (Frontiers in Pharmacology, 2021).

The structures appear in SMILES notation. Numbering of substitutions follows the chain as printed. pEC50: −log10 of the molar value.

Data set [1] addresses T1, ABCG2 (Homo sapiens, UniProt Q9UNQ0).
T1 construct: ABCG2 in insect cell membrane vesicles (total membranes)
T1 sequence (Q9UNQ0 1-655): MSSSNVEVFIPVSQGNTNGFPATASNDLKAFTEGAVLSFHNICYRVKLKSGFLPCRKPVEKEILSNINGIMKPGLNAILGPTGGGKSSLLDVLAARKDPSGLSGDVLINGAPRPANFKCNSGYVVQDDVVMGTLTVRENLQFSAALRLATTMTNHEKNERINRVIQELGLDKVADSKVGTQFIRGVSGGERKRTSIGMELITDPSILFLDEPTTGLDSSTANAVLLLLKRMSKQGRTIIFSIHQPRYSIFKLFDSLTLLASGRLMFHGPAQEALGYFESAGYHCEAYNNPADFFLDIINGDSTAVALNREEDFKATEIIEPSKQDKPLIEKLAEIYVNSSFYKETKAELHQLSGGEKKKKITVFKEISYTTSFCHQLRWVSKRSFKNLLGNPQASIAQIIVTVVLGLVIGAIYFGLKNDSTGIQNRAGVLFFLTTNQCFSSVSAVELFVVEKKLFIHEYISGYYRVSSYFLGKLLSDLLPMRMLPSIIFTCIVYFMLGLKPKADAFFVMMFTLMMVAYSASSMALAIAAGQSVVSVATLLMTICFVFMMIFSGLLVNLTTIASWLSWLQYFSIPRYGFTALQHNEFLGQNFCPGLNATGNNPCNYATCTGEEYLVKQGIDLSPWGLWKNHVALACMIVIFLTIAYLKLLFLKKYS
The data set can be described thus: biochemical.

Data set [2] deals with T2, ABCG2 (Homo sapiens, UniProt Q9UNQ0, R482T).
T2 sequence (Q9UNQ0 1-655 R482T): T1 sequence (Q9UNQ0 1-655) with R482T
The data set is described as follows: tritium-labeled mitoxantrone accumulation in transfected cells.

One may read the pEC50 as the negative decadic logarithm of the EC50, by convention in mol/L. A high value points to a small EC50. In data set [1], `Cc1cc(O)c(-c2ccc([C@@H](C)CN(C)C)cc2)c2c1[nH]c(=O)c1sccc12` [OTS964] gave a pEC50 of 6.85.
In the case of `O=C1c2c(O)ccc(O)c2C(=O)c2c(NCCNCCO)ccc(NCCNCCO)c21` [mitoxantrone], the “tritium-labeled mitoxantrone accumulation in transfected cells” value in data set [2] is “ABCG2-mediated efflux of mitoxantrone, which is an established substrate of ABCG2, in R482T-mutant-ABCG2-overexpressing cell line”.
